Experiments:
[1] = system: subthalamic nucleus neuron; assay: Effect for inhibiting neuronal firing in mouse brain slice (patch-clamp); assay type: cell-based; details: 500 μmol/L
Procedure: (§1) The action of the present compound for regulating the voluntary firing frequency in subthalamic nucleus neuron and cerebellar Purkinje cell was measured by patch-clamp method in mouse brain slice. […] As stimulus protocol, a current of +200 pA or +400 pA was added thereto for 400 milliseconds and the raised action potential was recorded. […] The stimulus-controlled and digitized action potential was recorded with Clampex software (Version 10.2) (all instruments are from Molecular Device Corporation, Union City, Calif., USA). […] In the measurement after adding the compound of Example 13, the action potential was recorded after the record solution containing the compound of Example 13 was perfused for more than 10 minutes. In the analyses, the percentage of the spike firing frequency (Hz) for the current stimulation after adding the compound of Example 13, per the spike firing frequency (Hz) for the current stimulation before adding the compound of Example 13, was calculated, which was defined as a change rate of spike firing frequency in each cell.

cerebellar Purkinje cell = assay: as above; assay type: cell-based; details: 500 μmol/L
Procedure: as §1

[2] = system: unilateral lesion model of nigrostriatal dopamine neuron induced with 6-OHDA; assay: Anti-tremor effect in 6-OHDA unilateral lesion model; assay type: in vivo, rat; details: 3 mg/kg oral, counted 10 minutes one hour later
Excerpt: A unilateral lesion model of nigrostriatal dopamine neuron induced with 6-OHDA is broadly used for evaluating the drug efficacy for treating Parkinson's disease, as shown in Test 3. In addition, the present model is known to present with jaw tremor which corresponds to the tremor frequency in a patient of Parkinson's disease, thus which is also expected to be a tremor model in Parkinson's disease. With the present model, the effect of the present compound for inhibiting the tremor in Parkinson's disease was evaluated. According to the procedure described in Test 3, a unilateral lesion model of nigrostriatal dopamine neuron was prepared. The compound of Example 13 (3 mg/kg) was orally administered to the model rat. One hour later, the number of tremulous jaw movements was counted for 10 minutes.

[3] = system: oxaliplatin chemotherapy-induced peripheral neuropathy model; assay: Anti-allodynia effect in chemotherapy-induced peripheral neuropathy model (acetone test); assay type: in vivo, rat; details: Example 13 100 mg/kg oral once a day 17 times; duloxetine 30 mg/kg oral single
Excerpt: As one of chemotherapy-induced peripheral neuropathy, sensory disturbance due to neuropathy caused by a platinating agent that is an anticancer agent such as cisplatin and oxaliplatin is known, and the symptom is difficult to be recovered even after the medication is discontinued. The therapeutic effect for sensory disturbance caused by repetitive administration of oxaliplatin was studied in the present test.
To male Crl: CD (SD) rats (7 weeks old) (CHARLES RIVER LABORATORIES JAPAN, INC.), oxaliplatin (5 mg/kg) was intraperitoneally administered for the two consecutive days in a week, totally 6 times, to prepare chemotherapy-induced peripheral neuropathy models. The compound of Example 13 (100 mg/kg) was repeatedly orally administered once a day, totally 17 times. […] In the acetone test, 0.1 mL of acetone was sprayed to the foot sole of the rat hind paw, and the reaction was evaluated according a scoring (Cold Score). When there was no reaction for 20 seconds after spraying acetone, Score 0 was recorded and the observation was stopped. When there was any reaction for the 20 seconds, the observation was continued until 40 seconds after spraying, and the score was recorded according to the evaluation scale. The acetone spray was done twice each for right and left hind paws, and the total score was calculated. […]

[4] = system: reserpine-induced Parkinson's disease model mouse; assay: Potentiating effect of levodopa-induced hyperactivity in reserpine-induced Parkinson's disease model mouse; assay type: in vivo; details: Examples 12.5 or 25 mg/kg oral; rasagiline 3 or 10 mg/kg; with levodopa 200 mg/kg i.p.
Procedure: Dopamine-depleted mice due to reserpine treatment are model mice of akinesia symptoms in Parkinson's disease, said symptoms are relieved with levodopa (L-DOPA). The effect of the present compounds for potentiating the levodopa's effect was tested.
In the present test, male Crl: CD1 (ICR) mice (CHARLES RIVER LABORATORIES JAPAN, INC.) were used. 20-24 hours before starting the movement measurement, reserpine (3 mg/kg) was intraperitoneally administered to the mouse. One hour before starting the movement measurement, the present compound (12-.5 mg/kg or 25 mg/kg of. Examples 1, 2, 3, 4, and 5) was orally administered to the mouse. Shortly before starting the movement measurement, levodopa (200 mg/kg) with benserazide whose amount was ¼ of levodopa in free form was intraperitoneally administered to the mouse. The movement measurement was carried out for 90 minutes, and each total movement was compared.

Row | SMILES | spike firing frequency in subthalamic nucleus neuron [1] | spike firing frequency in cerebellar Purkinje cell (cerebellar Purkinje cell) | number of tremulous jaw movements [2] | Cold Score in acetone test [3] | levodopa-induced hyperactivity (total movement, 90 minutes) [4]
1 | C[C@H](c1noc2ccccc12)S(N)(=O)=O [Example 13, (1R)-1-(1,2-benzoxazol-3-yl)ethane-1-sulfonamide] | significantly inhibited the spike firing frequency | significantly inhibited the spike firing frequency | significantly decreased the number of tremulous jaw movements per unit time | significantly lower Cold Score | –
2 | CC(c1noc2ccccc12)S(N)(=O)=O (centres unmarked) [Example 1, 1-(Benzo[d]isoxazol-3-yl)ethane-1-sulfonamide] | – | – | – | – | significantly-potentiating effect of levodopa-induced hyperactivity

Reference: US11535599B2, “Benzisoxazole derivative” (Sumitomo Pharma Co., Ltd., priority 2020, dated 2022)
